# Peptide text beside a SMILES is read from it. * marks the point of attachment. Cbz = O=C(OCc1ccccc1)*; OtBu = CC(C)(C)O*
# What was measured:
# [1] = tested on: HUE cells; assay: Apoptotic morphology (phase contrast, Hoechst 33342), HUE cells; type: cell-based, human; conditions: subconfluent HUE cells, 50 µM, 18 - 24 hours
# Source text: Phase contrast pictures are shown on the left, and identical areas which display the nuclear morphology after Hoechst staining are shown on the right. Arrowheads point at nuclei with apoptotic morphology. Scale bars are 50 µm.
# Primary bovine aortic endothelial cells (BAE) were isolated from bovine pulmonary aorta according to the method of Schwartz (In Vitro 14 (1978), 966 - 980) and maintained in MDCB131 medium supplemented with 8% fetal calf serum (FCS), penicillin (100 lU/ml) and streptomycin (100 µg/ml) at 5% CO2. Human umbilical vein endothelial cells (HUE), an immortalized human umbilical vein endothelial cell line (ATCC CRL-1730) were cultured under the same conditions. Madin Darby canine kidney epithelial cells (MDCK; ATCC CLL-34) were grown in Dulbecco's Modified Eagle's Medium (DMEM) containing 10% FCS, penicillin and streptomycin.
# [2] = tested on: HUE cells; assay: DNA fragmentation assay; type: cell-based, human; conditions: 10 µM PSI for 18 hours, agarose gel
# Method: • a. Analysis of PSI-induced DNA fragmentation by agarose gel electrophoresis. […] Neither caspase inhibitor (Ac-YVAD-CHO 250 µM, lane 4; Ac-DEVD-CHO 250 µM, lane 5) nor DMSO (lane 6) induced the characteristic pattern of DNA fragmentation. M1 and M2: DNA size markers (kb). • b. Immunoblot analysis of HUE cell lysates after incubation with PSI. […] Equal loading was controlled by using an antibody directed against GAPDH enzyme.
# HUE cells which had been plated at 20000 cells/cm^2 24 hours before the assay, were treated with 250 µM of the caspase inhibitors Ac-YVAD-CHO or Ac-DEVO-CHO (Peptide Institute, Osaka, Japan) or the equivalent volume of dimethylsulfoxide (DMSO) for 1 h prior to additon of the proteasomal inhibitors. Incubation of the cells was continued for a further 18 h and the extent of DNA fragmentation was analyzed as previously described with some minor modifications (Hockenberry et al., Nature 348 (1990), 334 - 336). Briefly, both the floating cells and the adherent cells which were detached by trypsinization, were lysed in a solution containing 0.5% Triton X100, 10 mM EDTA and 10 mM Tris-HCL pH 7.5 for 30 min on ice. To separate the intact chromatin from the oligonucleosomal fragments, the lysate was centrifuged at 13000 g for 10 min at 4°C and the resulting supernatant was sequentially extracted with phenol followed by phenol/chloroform/iso-amylalcohol (25:24:1; v/v/v). Low molecular weight DNA was precipitated by the addition of 0.5 vol 7 M ammonium acetate and 2.5 vol ice-cold ethanol. The precipitate was washed in 75% ethanol, dissolved in TE-buffer, containing RNase A (20 µg/ml; Boehringer Mannheim), incubated for 30 min at 37°C and subjected to electrophoresis on 1.5% agarose gels.
compound,measurement,setting,value
"CC[C@H](C)[C@H](NC(=O)OCc1ccccc1)C(=O)N[C@@H](CCC(=O)OC(C)(C)C)C(=O)N[C@@H](C)C(=O)N[C@H](C=O)CC(C)C [PSI, carbobenzoxy-L-isoleucyl-y-t-butyl-L-glutamyl-L-alanyl-L-leucinal] (Cbz-IE(OtBu)AL-aldehyde)",induction of apoptosis (nuclear morphology),[1],Induction of apoptosis
same,DNA fragmentation (DNA ladder formation),[2],induced DNA ladder formation

# Source: patent publication EP1053750A1, “Use of proteasome-inhibitor for the induction of programmed cell death (apoptosis)” (Max-Planck-Gesellschaft zur Förderung der Wissenschaften …, priority 1999, dated 2000)
